Key:
[1] = test system: UMN apical dendrites of hSOD1^G93A‐UeGFP mice; assay: UMN apical dendrites with vacuoles, hSOD1^G93A‐UeGFP mice; type: in vivo; details: for Mean, Fig. 4G (UMN apical dendrites with vacuoles): hSOD1G93A-UeGFP mice; for percentage of UMNs with vacuolated apical dendrites: hSOD1^G93A‐UeGFP mice
Experimental: (§1) hSOD1^G93A‐UeGFP, prpTDP‐43^A315T‐UeGFP and WT‐UeGFP mice were weighed and the required NU‐9 dose per weight was calculated (20 or 100 mg/kg), which was administered once daily by oral gavage, starting at postnatal day (P)60 and continuing until P120. Animals from the untreated group received the vehicle (NMP and olive oil) only. For oral administration purposes, 20 ga × 38 mm plastic feeding tubes were used (Instech Laboratories, Inc). The gavage tip was inserted into the mouth directly over the tongue and into the pharynx. While observing the swallowing reflex, the tip was safely and smoothly slid into the esophagus. Once the administration was completed, the gavage tip was pulled straight out.
(§2) Mice were deeply anesthetized using ketamine (90 mg/kg) with xylazine (10 mg/kg), and transcardially perfused with 4% PFA in PBS. The brains were removed intact and postfixed (4% PFA, overnight) and stored in PBS with sodium azide (0.01%) at 4°C. Sections were cut in a coronal (50 µm) plane using a vibratome (Leica) and processed for immunocytochemical analyses.
(§3) The antibodies used are as follows: anti‐GFP (1:1000, Invitrogen; or 1:1000, Abcam) and anti‐misfolded SOD1 (B8H10, 1:250, Médimabs). Briefly, sections were treated with blocking solution (PBS, 0.05% BSA, 2% FBS, 1% Triton X‐100, and 0.1% saponin) for 30 min at room temperature and incubated with primary antibody diluted in blocking solution overnight at 4°C. Appropriate secondary fluorescent antibodies (1:500, AlexaFluor‐conjugated, Invitrogen) were added to the blocking solution at room temperature for 2 h in the dark.

[2] = test system: UMN apical dendrites of prpTDP‐43^A315T‐UeGFP mice; assay: UMN apical dendrites with vacuoles, prpTDP‐43^A315T‐UeGFP mice; type: in vivo
Experimental: as §1, §2, §3

[3] = test system: hSOD1^G93A‐UeGFP mice; assay: Rotarod test, hSOD1^G93A‐UeGFP mice; type: in vivo; set-up: Rotarod, Mean Diff. (vehicle minus NU-9) / Rotarod, mean difference GS vehicle vs. GS NU-9 (20) / Rotarod, mean difference GS vehicle vs. GS NU-9 (100): unit not given here; details: for Rotarod, group mean (Mean 1 / Mean 2 of 2way ANOVA multiple comparisons) / Rotarod, mean difference GS vehicle vs. GS NU-9 (20) / Rotarod, mean difference GS vehicle vs. GS NU-9 (100): GS (hSOD1G93A-UeGFP); for Rotarod, mean difference GS vehicle vs. GS NU-9 (20): vehicle minus NU-9 (20); for Rotarod, mean difference GS vehicle vs. GS NU-9 (100): vehicle minus NU-9 (100); for Rotarod, group mean (Mean 1 / Mean 2) / Rotarod, Mean Diff. (vehicle minus NU-9): hSOD1G93A-UeGFP mice; for Rotarod, Average: hSOD1G93A-UeGFP
Experimental: as §1
(§4) Behavior data were collected from hSOD1^G93A‐UeGFP and WT‐UeGFP mice (starting at P60 and every 7 days until P116) and from prpTDP‐43^A315T‐UeGFP mice (at P60, P90, and P120) with the following number of mice for each group: WT‐UeGFP vehicle (n = 10), hSOD1^G93A‐UeGFP vehicle (n = 6), WT‐UeGFP 20 mg/kg/day NU‐9 (n = 5), hSOD1^G93A‐UeGFP 20 mg/kg/day NU‐9 (n = 7), WT‐UeGFP 100 mg/kg/day NU‐9 (n = 11), hSOD1^G93A‐UeGFP 100 mg/kg/day NU‐9 (n = 9), prpTDP‐43^A315T‐UeGFP untreated (n ≥ 3), and prpTDP‐43^A315T‐UeGFP 100 mg/kg/day NU‐9 (n = 4) (Table S3).
(§5) Mice were placed on a rotating rod that accelerates linearly from 4 to 40 rpm (Rotarod, Ugo Basile), and the average time spent on the rotating rod for three consecutive trials was calculated for each mouse. Mice were allowed to run for a maximum of 5 min with a 5 min rest period between each run, and the latency to fall was recorded for three consecutive trials. The average of the three trials was taken as the data point for each mouse at the age tested, and the performance of different groups are reported as the mean ± SEM.

[4] = test system: prpTDP‐43^A315T‐UeGFP mice; assay: Rotarod test, prpTDP‐43^A315T‐UeGFP mice; type: in vivo; details: for Rotarod, Predicted (LS) mean: prpTDP-43A315T-UeGFP (NU-9 100 mg/kg/day); for Rotarod, Average: prpTDP-43A315T-UeGFP, NU-9 100 mg/kg/day po
Experimental: as §1, §4, §5

[5] = test system: mice; details: cited from earlier work

C[C@H](Oc1cc(C(F)(F)F)cc(C(F)(F)F)c1)C1CC(=O)CC(=O)C1 [NU‐9]
Mean, Fig. 4G (UMN apical dendrites with vacuoles) ([1]; NU-9 20 mg/kg/day): 43.86
Mean, Fig. 4G (UMN apical dendrites with vacuoles) ([1]; NU-9 100 mg/kg/day): 23.28
Mean Diff., Fig. 4G, GS Vehicle vs. GS NU-9 (20) ([1]; hSOD1G93A-UeGFP vehicle minus NU-9 20 mg/kg/day, Tukey's multiple comparisons test): 32.38
Mean Diff., Fig. 4G, GS Vehicle vs. GS NU-9 (100) ([1]; hSOD1G93A-UeGFP vehicle minus NU-9 100 mg/kg/day, Tukey's multiple comparisons test): 52.96
percentage of UMNs with vacuolated apical dendrites ([1]; 20 mg/kg/day oral gavage P60–P120): 44% ± 7%
percentage of UMNs with vacuolated apical dendrites ([1]; 100 mg/kg/day oral gavage P60–P120): 23% ± 10%
Mean Diff., Fig. 7E, GT Untreated vs. GT NU-9 (100) ([2]; prpTDP43A315T-UeGFP untreated minus NU-9 100 mg/kg/day, Tukey's multiple comparisons test): 70.28
Mean, Fig. 7E (UMN apical dendrites with vacuoles) ([2]; prpTDP-43A315T-UeGFP mice, NU-9 100 mg/kg/day): 10.93
percentage of UMNs with vacuolated primary apical dendrites ([2]; prpTDP‐43^A315T‐UeGFP mice, 100 mg/kg/day oral gavage P60–P120): 11% ± 1%
Rotarod, group mean (Mean 1 / Mean 2 of 2way ANOVA multiple comparisons) ([3]; NU-9 (20), P102): 158.8
Rotarod, group mean (Mean 1 / Mean 2 of 2way ANOVA multiple comparisons) ([3]; NU-9 (20), P109): 149.1
Rotarod, group mean (Mean 1 / Mean 2 of 2way ANOVA multiple comparisons) ([3]; NU-9 (20), P116): 107.7
Rotarod, group mean (Mean 1 / Mean 2 of 2way ANOVA multiple comparisons) ([3]; NU-9 (100), P102): 170
Rotarod, group mean (Mean 1 / Mean 2 of 2way ANOVA multiple comparisons) ([3]; NU-9 (100), P109): 151.3
Rotarod, group mean (Mean 1 / Mean 2 of 2way ANOVA multiple comparisons) ([3]; NU-9 (100), P116): 128.5
Rotarod, mean difference GS vehicle vs. GS NU-9 (20) ([3]; P102): 22.8
Rotarod, mean difference GS vehicle vs. GS NU-9 (20) ([3]; P109): 18.74
Rotarod, mean difference GS vehicle vs. GS NU-9 (20) ([3]; P116): 14.44
Rotarod, mean difference GS vehicle vs. GS NU-9 (100) ([3]; P102): 11.61
Rotarod, mean difference GS vehicle vs. GS NU-9 (100) ([3]; P109): 16.57
Rotarod, mean difference GS vehicle vs. GS NU-9 (100) ([3]; P116): -6.407
Rotarod, group mean (Mean 1 / Mean 2) ([3]; NU-9 20 mg/kg/day, P60): 221.3
Rotarod, group mean (Mean 1 / Mean 2) ([3]; NU-9 20 mg/kg/day, P67): 221.6
Rotarod, group mean (Mean 1 / Mean 2) ([3]; NU-9 20 mg/kg/day, P74): 213.6
Rotarod, group mean (Mean 1 / Mean 2) ([3]; NU-9 20 mg/kg/day, P81): 207.4
Rotarod, group mean (Mean 1 / Mean 2) ([3]; NU-9 20 mg/kg/day, P88): 209.5
Rotarod, group mean (Mean 1 / Mean 2) ([3]; NU-9 20 mg/kg/day, P95): 178.8
Rotarod, group mean (Mean 1 / Mean 2) ([3]; NU-9 100 mg/kg/day, P60): 206.8
Rotarod, group mean (Mean 1 / Mean 2) ([3]; NU-9 100 mg/kg/day, P67): 223.1
Rotarod, group mean (Mean 1 / Mean 2) ([3]; NU-9 100 mg/kg/day, P74): 224
Rotarod, group mean (Mean 1 / Mean 2) ([3]; NU-9 100 mg/kg/day, P81): 223.4
Rotarod, group mean (Mean 1 / Mean 2) ([3]; NU-9 100 mg/kg/day, P88): 203.8
Rotarod, group mean (Mean 1 / Mean 2) ([3]; NU-9 100 mg/kg/day, P95): 191
Rotarod, Mean Diff. (vehicle minus NU-9) ([3]; vehicle vs. NU-9 20 mg/kg/day, P60): -28.22
Rotarod, Mean Diff. (vehicle minus NU-9) ([3]; vehicle vs. NU-9 20 mg/kg/day, P67): 4.159
Rotarod, Mean Diff. (vehicle minus NU-9) ([3]; vehicle vs. NU-9 20 mg/kg/day, P74): 4.103
Rotarod, Mean Diff. (vehicle minus NU-9) ([3]; vehicle vs. NU-9 20 mg/kg/day, P81): -5.651
Rotarod, Mean Diff. (vehicle minus NU-9) ([3]; vehicle vs. NU-9 20 mg/kg/day, P88): -17.41
Rotarod, Mean Diff. (vehicle minus NU-9) ([3]; vehicle vs. NU-9 20 mg/kg/day, P95): 23.52
Rotarod, Mean Diff. (vehicle minus NU-9) ([3]; vehicle vs. NU-9 20 mg/kg/day, P102): 22.8
Rotarod, Mean Diff. (vehicle minus NU-9) ([3]; vehicle vs. NU-9 20 mg/kg/day, P109): 18.74
Rotarod, Mean Diff. (vehicle minus NU-9) ([3]; vehicle vs. NU-9 20 mg/kg/day, P116): 14.44
Rotarod, Mean Diff. (vehicle minus NU-9) ([3]; vehicle vs. NU-9 100 mg/kg/day, P60): -13.7
Rotarod, Mean Diff. (vehicle minus NU-9) ([3]; vehicle vs. NU-9 100 mg/kg/day, P67): 2.704
Rotarod, Mean Diff. (vehicle minus NU-9) ([3]; vehicle vs. NU-9 100 mg/kg/day, P74): -6.241
Rotarod, Mean Diff. (vehicle minus NU-9) ([3]; vehicle vs. NU-9 100 mg/kg/day, P81): -21.67
Rotarod, Mean Diff. (vehicle minus NU-9) ([3]; vehicle vs. NU-9 100 mg/kg/day, P88): -11.7
Rotarod, Mean Diff. (vehicle minus NU-9) ([3]; vehicle vs. NU-9 100 mg/kg/day, P95): 11.37
Rotarod, Mean Diff. (vehicle minus NU-9) ([3]; vehicle vs. NU-9 100 mg/kg/day, P102): 11.61
Rotarod, Mean Diff. (vehicle minus NU-9) ([3]; vehicle vs. NU-9 100 mg/kg/day, P109): 16.57
Rotarod, Mean Diff. (vehicle minus NU-9) ([3]; vehicle vs. NU-9 100 mg/kg/day, P116): -6.407
Rotarod, Average ([3]; NU-9 20 mg/kg/day po, P60): 221.333 s
Rotarod, Average ([3]; NU-9 20 mg/kg/day po, P67): 221.619 s
Rotarod, Average ([3]; NU-9 20 mg/kg/day po, P74): 213.619 s
Rotarod, Average ([3]; NU-9 20 mg/kg/day po, P81): 207.429 s
Rotarod, Average ([3]; NU-9 20 mg/kg/day po, P88): 209.524 s
Rotarod, Average ([3]; NU-9 20 mg/kg/day po, P95): 178.81 s
Rotarod, Average ([3]; NU-9 20 mg/kg/day po, P102): 158.81 s
Rotarod, Average ([3]; NU-9 20 mg/kg/day po, P109): 149.095 s
Rotarod, Average ([3]; NU-9 20 mg/kg/day po, P116): 107.667 s
Rotarod, Average ([3]; NU-9 100 mg/kg/day po, P60): 206.815 s
Rotarod, Average ([3]; NU-9 100 mg/kg/day po, P67): 223.074 s
Rotarod, Average ([3]; NU-9 100 mg/kg/day po, P74): 223.963 s
Rotarod, Average ([3]; NU-9 100 mg/kg/day po, P81): 223.444 s
Rotarod, Average ([3]; NU-9 100 mg/kg/day po, P88): 203.815 s
Rotarod, Average ([3]; NU-9 100 mg/kg/day po, P95): 190.963 s
Rotarod, Average ([3]; NU-9 100 mg/kg/day po, P102): 170 s
Rotarod, Average ([3]; NU-9 100 mg/kg/day po, P109): 151.259 s
Rotarod, Average ([3]; NU-9 100 mg/kg/day po, P116): 128.519 s
rotarod performance ([3]; hSOD1^G93A‐UeGFP mice, regardless of dose (20 or 100 mg/kg/day)): did not result in significant improvement
Rotarod, Predicted (LS) mean ([4]; P60, mixed-effects analysis): 260
Rotarod, Predicted (LS) mean ([4]; P90, mixed-effects analysis): 216
Rotarod, Predicted (LS) mean ([4]; P120, mixed-effects analysis): 165.8
Rotarod, Average ([4]; P60): 267.889
Rotarod, Average ([4]; P90): 232.556
Rotarod, Average ([4]; P120): 178.444
rotarod test, latency to fall ([4]; prpTDP‐43^A315T‐UeGFP mice, 100 mg/kg/day, after 30 days of treatment): 232.6 ± 18.1 s
MTD ([5]; ip): 1280 mg/kg
NOAEL ([5]; po, 7‐day repeat toxicology study): 100 mg/kg

— paper PMC7898037, “Improving mitochondria and ER stability helps eliminate upper motor neuron degeneration that occurs due to mSOD1 toxicity and TDP‐43 pathology” (Clinical and Translational Medicine, 2021)
